Key:
[1] = target: T1, KRAS4B (wild type) (Homo sapiens, UniProt P01116); experiment: K-Ras Nucleotide Exchange Assay-384 (SOS Exchange Assay by Cytoskeleton, GTPx_Cyt_IC50); format: biochemical; details: 1 μM KRAS4B, 0.05 μM SOS1, 1.5 μM mant-GDP
T1 construct: purchased Cytoskeleton CS-RS03 (K-Ras4B); CS-SOS1-A (SOS1)
Experimental: Example 16. Evaluation of Biological Activities: K-Ras Nucleotide Exchange Assay-384 (SOS Exchange Assay by Cytoskeleton (GTPx_Cyt_IC50))
This assay is used to evaluate inhibitors of K-ras, by monitoring the inhibition of nucleotide exchange over time, in the presence of the protein SOS.
384-well black, untreated plates (Corning 3820 with NBS or 3821 untreated) were used. K-Ras4B Protein was used, which is wild-type (Cytoskeleton #CS-RS03) with a concnetration of 5 mg/ml, or 200 μM. Human SOS1 Protein, Exchange Domain 564-1049 (Cytoskeleton # CS-SOS1-A) was used in a concentration of 3.03 mg/ml or 50 μM. Mant-GDP triethylammonium salt solution was purchased from Sigma (catalog No. 69244). 1M stock solution of Hepes was purchased from Sigma (catalog No. H9897). 1M stock solution of MgCl2 was purchased from Sigma (catalog No. M4880). CHAPS, 3% was purchased from Sigma (catalog No. C5070). Nonidet P40 was purchased from Sigma. KOH pellets were purchased from Sigma.
K-ras buffer containing 40 mM Hepes, 10 mM MgCl2, 0.05% CHAPS, 0.01% NP40 with a pH 7.5 was prepared as follows: to a Buffer base containing 4 ml 1M Hepes, 1 ml MgCl2,
93.3 ml d-H2O, pH 7.5 (with KOH pellets), 1.7 ml 3% CHAPS was added, followed by the addition of 1 ml 1% NP40.
Final Conditions of the method included 1 μM KRAS4B (wild type), 0.05 μM SOS1, 1.5 μM mant-GDP. Reagent Preparation included: thawing aliquots of KRAS, SOS, and mant-GDP; preparing 3x KRAS (3 uM) in assay buffer; preparing 3x SOS/mant-GDP (150 nM/4.5 uM) in assay buffer; and preparing 3x compounds in assay buffer.
Assay Procedure (1536) used 3.3 μl, 3x Kras, 3.3 μl 3x compound with preincubate 0 hour, and […] 3x SOS/mant-GDP. A kinetic read measuring fluorescence at 360_450 was performed for 30 min at 30 second intervals.
Reference compound SCH 54292 (reversible inhibitor) at about 100 μM was used with no preincubation. Reagents were only stable for 45 min on ice, and therefore were prepared fresh before each assay. Partial plates (up to 9 columns) were run at a time to minimize effects due to the amount of time it takes to read a whole plate. SOS/mant-GDP were added with an automated pipettor to initiate all reactions at the same time. Assay was typically performed at 0.5% solution in DMSO (compounds prepared in 1.5% DMSO initially).
Clariostar Settings were as follows. Test Name was Kras Kinetic 360-450. Basic settings of the test included Measurement type as Fluorescence (FI), and Microplate name as Corning 3820. Plate mode settings included 61 cycles, 30 second cycle time, and 10 flashes per well. Optic settings were as follows. Excitation wavelength was 360 nm. Emission wavelength was 450 nM. Excitation bandwidth was 12 nm. Emission bandwidth was 12 nm. Dichroic filter 405 was used. D6 Well(s) was used for gain adjustment. No shaking was used. General settings were as follows. Top optic was used. Settling time was 0.1 second. Reading direction was bidirectional, horizontal left to right, and bottom to top. The target temperature was 25° C.

[2] = target: Ras protein (Homo sapiens, UniProt P01116); experiment: GDPx_Icagen_IC50: SOS1-mediated guanine nucleotide exchange rate of Ras (mant-GDP); format: biochemical; details: SOS1-initiated exchange
Description: (§1) In some embodiments, the IC50 assay measures the reduction effect of a given compound on the guanine nucleotide-echange rate of Ras protein in the presence of guanine nucleotide exchange protein SOS1, which is a Ras activator. In the assay GDP-loaded Ras was first prepared in a buffer containing the compound at certain concentration and fluorescent guanine nucleotide (mant-GDP (used in Icagene assay) or mant-GTP (used in other IC50 assays). The guanine nucleotide exchange was initiated by the addition of the SOS1 and its rate was reflected in the rate of fluorescence change as a function of time, which was monitored by a reader. The experiment was repeated at different compound concentrations and the IC50 of the compound was defined as the compound concentration at which half of its maximal reduction effect on the guanine nucleotide exchange rate is achieved. In other embodiments, other Ras activator proteins may be used. Non-limiting examples of other Ras activator proteins include RasGRP (Ras guanyl-releasing protein).
Example 17. Evaluation of Biological Activities: GDPx_Icagen_ICso
as §1, with “The IC50” for “In some embodiments, the IC50”, “guanine nucleotide-exchange” for “guanine nucleotide-echange”, “Ras is” for “Ras was”, “nucleotide (mant-GDP).” for “nucleotide (mant-GDP (used in Icagene assay) or mant-GTP (used in other IC50 assays).”, “achieved.” for “achieved. In other embodiments, other Ras activator proteins may be used. Non-limiting examples of other Ras activator proteins include RasGRP (Ras guanyl-releasing protein).”

Sequence of Ras protein (P01116 1-188 isoform P01116-2): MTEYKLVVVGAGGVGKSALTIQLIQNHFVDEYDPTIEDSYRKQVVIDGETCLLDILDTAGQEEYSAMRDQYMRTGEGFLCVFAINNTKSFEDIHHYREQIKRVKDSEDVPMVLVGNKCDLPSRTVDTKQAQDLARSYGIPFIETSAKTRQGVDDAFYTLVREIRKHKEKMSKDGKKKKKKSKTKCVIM
T1 sequence (P01116 1-188 isoform P01116-2): as above

Compound	IC50 [1]	IC50 [2]
O=c1cc(CSc2ccccc2)[nH]n1-c1cnccn1 [Compound 166, 5-((phenylthio)methyl)-2-(pyrazin-2-yl)-1,2-dihydro-3H-pyrazol-3-one]	331 µM	48.8 µM
O=c1cc(CSc2nnc(-c3ccccc3)o2)[nH]n1-c1nc2ccccc2[nH]1 [Compound 153, 2-(1H-benzo[d]imidazol-2-yl)-5-(((5-phenyl-1,3,4-oxadiazol-2-yl)thio)methyl)-1,2-dihydro-3H-pyrazol-3-one]	0.8 µM	2 µM
Cc1ccc(-n2[nH]c(CSc3ccccc3)cc2=O)nc1 [Compound 140, 2-(5-methylpyridin-2-yl)-5-((phenylthio)methyl)-1H-pyrazol-3(2H)-one]	30.8 µM	1.6 µM
O=c1cc(CSc2ccccc2)[nH]n1-c1nc2ccccc2[nH]1 [Compound 144, 2-(1H-benzo[d]imidazol-2-yl)-5-((phenylthio)methyl)-1,2-dihydro-3H-pyrazol-3-one]	0.42 µM	0.3 µM
O=c1cc(CSc2cccc(Cl)c2)[nH]n1-c1nc2ccccc2[nH]1 [Compound 171, 2-(1H-benzo[d]imidazol-2-yl)-5-(((3-chlorophenyl)thio)methyl)-1,2-dihydro-3H-pyrazol-3-one]	100 µM	0.17 µM
Cc1cc(C)nc(SCc2cc(=O)n(-c3nc4ccccc4[nH]3)[nH]2)n1 [Compound 146, 2-(1H-benzo[d]imidazol-2-yl)-5-(((4,6-dimethylpyrimidin-2-yl)thio)methyl)-1,2-dihydro-3H-pyrazol-3-one]	2.6 µM	1.8 µM
Cc1cccc(-n2[nH]c(CSc3ccccc3)cc2=O)n1 [Compound 169, 2-(6-methylpyridin-2-yl)-5-((phenylthio)methyl)-1,2-dihydro-3H-pyrazol-3-one]	2.6 µM	7 µM
Cc1cc(C)nc(SCc2cc(=O)n(-c3nc4ccccc4s3)[nH]2)n1 [Compound 184, 2-(benzo[d]thiazol-2-yl)-5-(((4,6-dimethylpyrimidin-2-yl)thio)methyl)-1,2-dihydro-3H-pyrazol-3-one]	13.6 µM	5.8 µM
N#Cc1cccc(SCc2cc(=O)n(-c3nc4ccccc4[nH]3)[nH]2)c1 [Compound 173, 3-(((1-(1H-benzo[d]imidazol-2-yl)-5-oxo-2,5-dihydro-1H-pyrazol-3-yl)methyl)thio)benzonitrile]	100 µM	0.5 µM
Cc1ccc(SCc2cc(=O)n(-c3nc4ccccc4[nH]3)[nH]2)cc1 [Compound 186, 2-(1H-benzo[d]imidazol-2-yl)-5-((p-tolylthio)methyl)-1,2-dihydro-3H-pyrazol-3-one]	500 µM	1.3 µM
O=c1cc(CSc2ccc(Cl)c(Cl)c2)[nH]n1-c1nc2ccccc2[nH]1 [Compound 172, 2-(1H-benzo[d]imidazol-2-yl)-5-(((3,4-dichlorophenyl)thio)methyl)-1,2-dihydro-3H-pyrazol-3-one]	0.8 µM	0.2 µM
Cc1nnc(SCc2cc(=O)n(-c3nc4ccccc4s3)[nH]2)s1 [Compound 187, 2-(benzo[d]thiazol-2-yl)-5-(((5-methyl-1,3,4-thiadiazol-2-yl)thio)methyl)-1,2-dihydro-3H-pyrazol-3-one]	500 µM	21 µM
Cc1c(CSc2ccccc2)[nH]n(-c2nc3ccccc3[nH]2)c1=O [Compound 141, 2-(1H-benzo[d]imidazol-2-yl)-4-methyl-5-((phenylthio)methyl)-1H-pyrazol-3(2H)-one]	100 µM	0.77 µM
Cc1cc(C)nc(SCc2cc(=O)n(-c3ccccn3)n2C)n1 [Compound 165, 5-(((4,6-dimethylpyrimidin-2-yl)thio)methyl)-1-methyl-2-(pyridin-2-yl)-1,2-dihydro-3H-pyrazol-3-one]	300 µM	200 µM
CN1CCN(Cc2ccc(SCc3cc(=O)n(-c4nc5ccccc5[nH]4)[nH]3)cc2)CC1 [Compound 163, 2-(1H-benzo[d]imidazol-2-yl)-5-(((4-((4-methylpiperazin-1-yl)methyl)phenyl)thio)methyl)-1,2-dihydro-3H-pyrazol-3-one]	1 µM	0.5 µM
Cc1csc(SCc2cc(=O)n(-c3nc4ccccc4[nH]3)[nH]2)n1 [Compound 152, 2-(1H-benzo[d]imidazol-2-yl)-5-(((4-methylthiazol-2-yl)thio)methyl)-1,2-dihydro-3H-pyrazol-3-one]	0.61 µM	0.6 µM
Cc1cc(C)nc(CSCc2cc(=O)n(-c3nc4ccccc4[nH]3)[nH]2)n1 [Compound 164, 2-(1H-benzo[d]imidazol-2-yl)-5-((((4,6-dimethylpyrimidin-2-yl)methyl)thio)methyl)-1,2-dihydro-3H-pyrazol-3-one]	0.63 µM	22 µM
O=c1cc(COc2ccccc2)[nH]n1-c1nc2ccccc2[nH]1 [Compound145, 2-(1H-benzo[d]imidazol-2-yl)-5-(phenoxymethyl)-1,2-dihydro-3H-pyrazol-3-one]	3.9 µM	0.8 µM
O=c1cc(CSc2ccc(Br)cn2)[nH]n1-c1nc2ccccc2[nH]1 [Compound 158, 2-(1H-benzo[d]imidazol-2-yl)-5-(((5-bromopyridin-2-yl)thio)methyl)-1,2-dihydro-3H-pyrazol-3-one]	0.53 µM	0.2 µM
Cn1c(-n2[nH]c(CSc3ccccc3)cc2=O)nc2ccccc21 [Compound 170, 2-(1-methyl-1H-benzo[d]imidazol-2-yl)-5-((phenylthio)methyl)-1,2-dihydro-3H-pyrazol-3-one]	6.1 µM	11.9 µM
O=c1cc(CSc2nccc(C(F)(F)F)n2)[nH]n1-c1nc2ccccc2[nH]1 [Compound 149, 2-(1H-benzo[d]imidazol-2-yl)-5-(((4-(trifluoromethyl)pyrimidin-2-yl)thio)methyl)-1,2-dihydro-3H-pyrazol-3-one]	0.41 µM	0.3 µM
COc1cccc(SCc2cc(=O)n(-c3nc4ccccc4[nH]3)[nH]2)c1 [Compound 150, 2-(1H-benzo[d]imidazol-2-yl)-5-(((3-methoxyphenyl)thio)methyl)-1,2-dihydro-3H-pyrazol-3-one]	0.98 µM	0.2 µM
O=c1cc(CSc2ccccn2)[nH]n1-c1nc2ccccc2[nH]1 [Compound 142, 2-(1H-benzo[d]imidazol-2-yl)-5-((pyridin-2-ylthio)methyl)-1H-pyrazol-3(2H)-one]	1.2 µM	0.17 µM
O=c1cc(CSc2ccccn2)[nH]n1-c1nc2ccccc2s1 [Compound 185, 2-(benzo[d]thiazol-2-yl)-5-((pyridin-2-ylthio)methyl)-1,2-dihydro-3H-pyrazol-3-one]	340 µM	5.9 µM

From patent publication US20200308165A1, “Compounds as Ras Inhibitors and Use Thereof” (D.E. Shaw Research, LLC, priority 2017, published 2020)
